Laboratory results published in the supplement of paper PMC8633005.

Columns and labels:
Assay in all cases: drug sensitivity score (DSS) (DSS (unitless, 0-50 scale)); higher = more sensitive (stronger viability inhibition); extreme values may be limits of the assay
Settings in all cases: 72 h; culture: 2D
SK-MEL-28 = test system: SK-MEL-28
Procedure, shortened: (§1)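 Melanoma cell lines and patient-derived melanoma cultures at 1000–1500 cells per well were exposed in 2D, in 384-well plates, to a 527-compound oncology library at five concentrations spanning a 10,000-fold range for 72 h at 37 °C. CellTiter-Glo luminescence then measured viability. From dose-response curves fitted in the in-house Breeze software, a drug sensitivity score, a modified area-under-curve measure, was obtained.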

FM-MEL-3 = test system: FM-MEL-3
Procedure, shortened: as §1

SK-MEL-2 = test system: SK-MEL-2
Procedure, shortened: as §1

FM-MEL-2 = test system: FM-MEL-2
Procedure, shortened: as §1

WM852 = test system: WM852
Procedure, shortened: as §1

WM165 = test system: WM165
Procedure, shortened: as §1

FM-MEL-6 = test system: FM-MEL-6
Procedure, shortened: as §1

Bowes = test system: Bowes
Procedure, shortened: as §1

| SMILES | drug sensitivity score (SK-MEL-28) | drug sensitivity score (FM-MEL-3) | drug sensitivity score (SK-MEL-2) | drug sensitivity score (FM-MEL-2) | drug sensitivity score (WM852) | drug sensitivity score (WM165) | drug sensitivity score (FM-MEL-6) | drug sensitivity score (Bowes) |
| --- | --- | --- | --- | --- | --- | --- | --- | --- |
| COc1cc(N2CCC(N3CCN(C)CC3)CC2)ccc1Nc1ncnc(Nc2ccccc2S(=O)(=O)C(C)C)n1 [ASP3026] | 2 | 2.6 | 2.7 | 2.4 | 5.2 | 5.5 | 4.4 | 4.8 |
| O=C(NC1CCNCC1)c1n[nH]cc1NC(=O)c1c(Cl)cccc1Cl [AT7519] | 10.5 | 12.8 | 15.1 | 7.7 | 15.3 | 20 | 19.3 | 21.4 |
| O=C(Nc1c[nH]nc1-c1nc2ccc(CN3CCOCC3)cc2[nH]1)NC1CC1 [AT9283] | 2.9 | 0 | 2.3 | 0 | 2.9 | 8 | 0 | 8 |
| CN[C@@H](C)C(=O)N[C@H]1CN(C(=O)CC(C)C)CC[C@H]2CC[C@@H](C(=O)NC(c3ccccc3)c3ccccc3)N2C1=O [AT-406] | 0 | 0 | 0.1 | 9.7 | 0 | 0 | 2.2 | 1.9 |
| CC[C@H](CC#N)OC(=O)N[C@@H](C)c1cccc(NC(=O)Nc2ccc(-c3cnco3)c(OC)c2)c1 [AVN944] | 13.3 | 10.5 | 4.8 | 8.1 | 8.4 | 18.9 | 12.8 | 10.4 |
| COc1cc(N2CCN(C)CC2)ccc1Nc1nccc(-c2cn(C)c3cnccc23)n1 [AZ191] | 0 | 0.6 | 0 | 2.4 | 1.9 | 2.7 | 0 | 3.4 |
| COc1cc(OC2CCN(C)CC2)ccc1Nc1ncc2c(n1)n(C1CCCC1)c(=O)n2C [AZ 3146] | 1.7 | 2.2 | 1.3 | 3.3 | 3.2 | 5.5 | 3 | 3.3 |
| CN(C)CCCOc1ccc(-c2ccc3ncc4c(c3c2)n(C2CCOCC2)c(=O)n4C)cn1 [AZD0156] | 0 | 0 | 0 | 0.4 | 0 | 0.3 | 0 | 0 |
| N[C@@H]1CCCN(c2c(/C=C3\SC(=O)NC3=O)cccc2-c2ccccc2)C1 [AZD1208] | 0.4 | 2 | 0 | 2.8 | 0 | 0 | 0.8 | 0 |
| Cc1cc(Nc2nc(N[C@@H](C)c3ncc(F)cn3)ncc2Cl)[nH]n1 [AZD1480] | 0 | 0 | 0 | 0 | 0 | 0 | 0 | 0 |
| COc1cc2ncnc(Nc3cccc(Cl)c3F)c2cc1OC(=O)N1CCN(C)C[C@H]1C [AZD3759] | 0 | 0 | 0 | 0 | 0 | 0 | 0 | 0 |
| Cc1[nH]nc(C(F)(F)F)c1Cc1sc2c(c1C(=O)N1C[C@](C)(O)CO1)c(=O)n(C)c(=O)n2C(C)C [AZD3965] | 0 | 0 | 0 | 0 | 0 | 0 | 0.3 | 8 |
| COc1cc(CCc2cc(NC(=O)c3ccc(N4CC(C)NC(C)C4)cc3)n[nH]2)cc(OC)c1 (stereo not given) [AZD4547] | 0 | 0 | 0 | 0 | 0 | 0 | 0 | 0 |
| C[C@@H]1COCCN1c1cc(C2([S@](C)(=N)=O)CC2)nc(-c2cc[nH]c3nccc2-3)n1 [AZD6738] | 2.7 | 9.7 | 10.8 | 3.4 | 14.8 | 10.2 | 7 | 19.3 |
| CN(C)C(=O)c1ccc(S(=O)(=O)c2ccc(NC(=O)[C@@](C)(O)C(F)(F)F)c(Cl)c2)cc1 [AZD7545] | 0 | 0 | 0 | 0 | 1.1 | 0 | 0 | 2.2 |
| NC(=O)Nc1cc(-c2cccc(F)c2)sc1C(=O)N[C@H]1CCCNC1 [AZD7762] | 2.2 | 6.1 | 4.2 | 0.2 | 8.4 | 4.7 | 6.5 | 7.7 |
| N#Cc1ccc2[nH]c(O)c(-c3ccc(CN4CCOCC4)cn3)c2c1 [AZD-1080] | 0 | 0 | 0 | 0 | 0.6 | 2.2 | 0 | 0 |
| Cc1ncc(-c2ccnc(Nc3ccc(S(C)(=O)=O)cc3)n2)n1C(C)C [AZD-5438] | 9.9 | 4.7 | 4.2 | 2.2 | 6.2 | 10.6 | 7 | 10.7 |

| SMILES | drug sensitivity score (SK-MEL-28) | drug sensitivity score (FM-MEL-3) | drug sensitivity score (SK-MEL-2) | drug sensitivity score (FM-MEL-2) | drug sensitivity score (WM852) | drug sensitivity score (WM165) | drug sensitivity score (FM-MEL-6) | drug sensitivity score (Bowes) |
| --- | --- | --- | --- | --- | --- | --- | --- | --- |
| Cc1cc([C@@H](C)Nc2ccccc2C(=O)O)c2nc(N3CCOCC3)cc(=O)n2c1 [AZD-6482] | 3.3 | 1.7 | 0 | 1.9 | 0.4 | 0.5 | 1.4 | 1.2 |
| C[C@@H](Nc1cc(F)cc(F)c1)c1cc(C(=O)N(C)C)cc2c(=O)cc(N3CCOCC3)oc12 [AZD-8186] | 3.7 | 0 | 0 | 2.4 | 0.8 | 0.4 | 2.2 | 2.6 |
| CCN1CCN(Cc2ccc(Nc3ncc(F)c(-c4cc(F)c5nc(C)n(C(C)C)c5c4)n3)nc2)CC1 [Abemaciclib] | 8.7 | 7.2 | 0 | 4 | 5.3 | 6.6 | 0 | 9.6 |
| CN(C)Cc1c(C(=O)NCCOc2ccc(C(=O)NO)cc2)oc2ccccc12 [Abexinostat] | 13 | 14.6 | 15.9 | 15.9 | 9.1 | 17 | 14.7 | 10 |
| C[C@]12CC[C@H](O)CC1=CC[C@@H]1[C@@H]2CC[C@]2(C)C(c3cccnc3)=CC[C@@H]12 [Abiraterone] | 0 | 0 | 0 | 0 | 0 | 0 | 0 | 0 |
| CC#CC(=O)N1CCC[C@H]1c1nc(-c2ccc(C(=O)Nc3ccccn3)cc2)c2c(N)nccn12 [Acalabrutinib] | 0 | 2.2 | 0 | 1 | 0 | 0 | 3.4 | 0 |
| COc1cc(C)c(/C=C/C(C)=C/C=C/C(C)=C/C(=O)O)c(C)c1C [Acitretin] | 0 | 1.3 | 0 | 0 | 0 | 0 | 1.6 | 2.6 |
| CN(C)C/C=C/C(=O)Nc1cc2c(Nc3ccc(F)c(Cl)c3)ncnc2cc1O[C@H]1CCOC1 [Afatinib] | 0 | 0.5 | 0 | 0 | 0 | 0 | 0.3 | 2.2 |
| Cn1ncc(Cl)c1-c1cc(C(=O)N[C@H](CN)Cc2cccc(F)c2)sc1Cl [Afuresertib] | 1 | 1.9 | 0 | 1.5 | 0.5 | 1.5 | 2.3 | 0 |
| COc1cccc2c1C(=O)c1c(O)c3c(c(O)c1C2=O)C[C@@](O)(/C(CO)=N/NC(=O)CCCCCN1C(=O)C=CC1=O)C[C@@H]3O[C@H]1C[C@H](N)[C@H](O)[C@H](C)O1 [Aldoxorubicin] | 8.8 | 8 | 6.3 | 6.4 | 5.8 | 15.2 | 8.6 | 4.3 |
| CCc1cc2c(cc1N1CCC(N3CCOCC3)CC1)C(C)(C)c1[nH]c3cc(C#N)ccc3c1C2=O [Alectinib] | 0 | 0 | 0 | 0.6 | 0 | 0.2 | 0 | 0 |
| COc1cc(Nc2ncc3c(n2)-c2ccc(Cl)cc2C(c2c(F)cccc2OC)=NC3)ccc1C(=O)O [Alisertib] | 3.2 | 3.1 | 0 | 0.5 | 0 | 13.7 | 0.5 | 18.5 |
| Oc1ncnc2[nH]ncc12 [Allopurinol] | 0 | 0 | 0 | 0 | 0 | 0 | 0 | 0 |
| Cc1nc(NC(=O)N2CCC[C@H]2C(N)=O)sc1-c1ccnc(C(C)(C)C(F)(F)F)c1 [Alpelisib] | 1.2 | 2.7 | 0 | 2.1 | 1.9 | 0.6 | 0.7 | 0.3 |
| O=C(Nc1cc(Oc2cc(F)c(NC(=O)C3(C(=O)Nc4ccc(F)cc4)CC3)cc2F)ccn1)C1CC1 [Altiratinib] | 0 | 9 | 0 | 6.2 | 6.1 | 5 | 7.7 | 6.4 |
| CN1CC[C@H](c2c(O)cc(O)c3c(=O)cc(-c4ccccc4Cl)oc23)[C@H](O)C1 [Alvocidib] | 18.1 | 18.6 | 16.9 | 12.6 | 16.4 | 20.4 | 17.7 | 19.9 |
| CCN(CC)CCNC(=O)c1c(C)[nH]c(/C=C2\C(=O)Nc3ccc(-c4csc(-c5ccccc5)n4)cc32)c1C [Amcasertib] | 1.9 | 4.1 | 0 | 7.4 | 8.2 | 4.5 | 8.8 | 0.2 |
